The subject of experiment [1] is primary CD4+ T cells infected with CH58 TF. Kind of experiment: FACS-based ADCC assay with patient sera/plasma. The format is cell-based, HIV-1. The following applies: for fold induction at 50 µM: Human immunodeficiency virus 1, CD4+ T, read-out: Fold over DMSO (% ADCC with ps, n = 3); for ADCC responses against infected cells: 50 μM, 1/1,000 dilution of plasma from 15 HIV-1-infected individuals, result in words. How it is done:
Measurement of antibody or serum-mediated ADCC is performed with a FACS-based assay as described in Prevost, “Influence of the Envelope gp120 Phe 43 Cavity on HIV-1 Sensitivity to Antibody-Dependent Cell-Mediated Cytotoxicity Responses,” 2017, J. Virol 91; Richard, “CD4 mimetics sensitize HIV-1-infected cells to ADCC,” 2015, Proc. Natl. Acad. Sci. USA, 112:E2687-2694; Richard, “Small CD4 Mimetics Prevent HIV-1 Uninfected Bystander CD4+ T Cell Killing Mediated by Antibody-dependent Cell-mediated Cytotoxicity,” 2016, EBioMedicine 3:122-134; Veillette, “The HIV-1 gp120 CD4-Bound Conformation Is Preferentially Targeted by Antibody-Dependent Cellular Cytotoxicity-Mediating Antibodies in Sera from HIV-1-Infected Individuals,” 2015, J. Virol., 89:545-551; Veillette, “Interaction with cellular CD4 exposes HIV-1 envelope epitopes targeted by antibody-dependent cell-mediated cytotoxicity,” 2014, J. Virol., 88:2633-2644; Richard, “Uninfected Bystander Cells Impact the Measurement of HIV-Specific Antibody-Dependent Cellular Cytotoxicity Responses,” 2018, MBio. 9(2): e00358-18; Richard, “BST-2 Expression Modulates Small CD4-Mimetic Sensitization of HIV-1-Infected Cells to Antibody-Dependent Cellular Cytotoxicity,” 2017, J. Virol. 91(11):e00219-17. This assay specifically measures ADCC activity against productively infected cells and is not affected by the confounding effect of uninfected bystander cells. See, Richard, “Uninfected Bystander Cells Impact the Measurement of HIV-Specific Antibody-Dependent Cellular Cytotoxicity Responses,” 2018, MBio., 9(2): e00358-18.
Briefly, primary CD4+ T cells isolated from healthy HIV-1-negative individuals or CEM-NKr cells are infected with HIV viruses. Forty-eight hours post-infection, cells are incubated with autologous PBMC (effector:target cell ratio of 10:1) in the presence of 1:1000 HIV+ sera dilution or anti-Env Abs (5 μg/mL) alone or in combination with increasing concentration of MCG analogs. Infected cells are identified by intracellular staining for HIV-1 p24 or GFP expression (for GFP expressing infectious molecular clones) and the percentage of cytotoxicity is calculated the following formula as described.
For cells infected with HIV-1 primary isolates, infected cells are identified by intracellular staining for HIV-1 p24. In that context, the percentage of cytotoxicity is calculated with the following formula by gating infected lived target cells: […]
The ADCC susceptibility of primary CD4+ T cells infected with CH58 TF mediated by HIV+ plasma+/−MCG analogs also was evaluated using a FACS-based assay as previously reported. See, Ding, 2016, J Virol., 90:2127-2134; and Richard, 2018, MBio 9.
Briefly, Primary CD4 T cells isolated from PBMC were infected with HIV-1CH58TF for 48 hours. For cell surface staining, 5 μg/ml 17b (FIG. 15A) or 1:1000 diluted HIV+ plasma (n=15) (FIG. 15B) were used in the presence of the different MCG analogs (50 μM), (+)-BNM-III-170 or with an equivalent volume of vehicle (DMSO). An Alexa Fluor 647-conjugated anti-human IgG secondary Ab was then used for fluorescent labeling. For ADCC (FIG. 15C), infected cells were used as target cells in a FACS-based ADCC assay that measures the killing of infected (p24+ cells). See, Madani, 2016, J. Virol., 90:5031-5046. The assay determines susceptibility to ADCC mediated by a 1/1,000 dilution of plasma from 15 HIV-1-infected individuals in the presence of the different MCG analogs (50 μM), (+)-BNM-III-170 (50 μM) or with an equivalent volume of vehicle (DMSO). Correlation between cell-surface staining with HIV+ plasma and ADCC was calculated using the Spearman rank correlation (FIG. 15D).

In experiment [2] the test system is CH58TF infected primary CD4+ T-cells. Kind of experiment: Recognition of HIV-1 infected cells by 17b (flow cytometry cell-surface staining). The format is cell-based. To be noted: for fold induction at 50 µM: Human immunodeficiency virus 1, T-cell, read-out: Fold Over DMSO (17b, n = 1); for recognition of infected cells by the anti-CoRBS 17b antibody: 50 μM, 5 μg/ml 17b, result in words. The essentials:
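Primary CD4+ T cells infected 48 h with HIV-1 CH58TF, stained with 5 μg/ml 17b plus MCG analogs (50 μM), (+)-BNM-III-170 or DMSO vehicle. Detection by Alexa Fluor 647 anti-human IgG secondary and flow cytometry. Infected cells gated as p24+ living cells.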
For orientation: Flow cytometry measures light scatter and fluorescence of single cells or particles in a stream.

In the case of `CS(=O)(=O)N1CCC[C@H](C(=O)Nc2ccc(Br)cc2)C1` [(S)-MCG-III-027-A02], the fold induction at 50 µM in experiment [1] is 0.291; in experiment [2] it was 1.65.

`CS(=O)(=O)N1CCC[C@H](C(=O)Nc2ccc(F)cc2)C1` [(S)-MCG-III-027-A03]: the fold induction at 50 µM was 0.969 in experiment [1] and 1.12 in experiment [2].

Regarding `CS(=O)(=O)N1CCC[C@H](C(=O)Nc2cccc(Cl)c2)C1` [(S)-MCG-III-027-B01], the figures for the fold induction at 50 µM in experiment [1] and in experiment [2] were 0.87 and 1.04, respectively.

As for `CS(=O)(=O)N1CCC[C@H](C(=O)Nc2cccc(Br)c2)C1` [(S)-MCG-III-027-B02], the fold induction at 50 µM in experiment [1] is 0.74; in experiment [2], 1.06.

As to `CS(=O)(=O)N1CCC[C@H](C(=O)Nc2cccc(F)c2)C1` [(S)-MCG-III-027-B03], the figures for the fold induction at 50 µM in experiment [1] and in experiment [2] were 1.17 and 1.05, respectively.

Consider `CS(=O)(=O)N1CCC[C@H](C(=O)Nc2cccc(C(F)(F)F)c2)C1` [(S)-MCG-III-027-B04], for which the fold induction at 50 µM came out at 0.129 in experiment [1] and 1.01 in experiment [2].

On to `COc1cccc(NC(=O)[C@H]2CCCN(S(C)(=O)=O)C2)c1` [(S)-MCG-III-027-B05], for which the fold induction at 50 µM in experiment [1] was found to be 0.361; in experiment [2] it was 1.03.

Turning to `CS(=O)(=O)N1CCC[C@H](C(=O)Nc2ccccc2Cl)C1` [(S)-MCG-III-027-C01], the fold induction at 50 µM was found to be 0.722 in experiment [1] and 1.14 in experiment [2].

In the case of `CS(=O)(=O)N1CCC[C@H](C(=O)Nc2ccc(F)cc2F)C1` [(S)-MCG-III-027-D04], the fold induction at 50 µM in experiment [1] was 1.37; in experiment [2], 1.17.

In the case of `CS(=O)(=O)N1CCC[C@H](C(=O)Nc2ccc(Cl)c(F)c2)C1` [(S)-MCG-III-027-D05], in experiment [1], the “ADCC responses against infected cells” value was “enhanced ADCC responses” and the fold induction at 50 µM was determined as 1.01. In experiment [2], the “recognition of infected cells by the anti-CoRBS 17b antibody” value (from here on “recognition of infected cells”) was “enhanced the recognition of infected cells” and the fold induction at 50 µM is 2.22.

`CCS(=O)(=O)N1CCC[C@H](C(=O)Nc2ccc(Cl)c(F)c2)C1` [(S)-MCG-III-085-C01]: the fold induction at 50 µM in experiment [1] was 0.487; in experiment [2] it was 5.7.

As for `Cn1cnc(S(=O)(=O)N2CCC[C@H](C(=O)Nc3ccc(Cl)c(F)c3)C2)c1` [(S)-MCG-III-116-A02], the fold induction at 50 µM in experiment [1] is 1.86.

With `COC(=O)N1CCC[C@H](C(=O)Nc2ccc(Cl)c(F)c2)C1` [(S)-MCG-III-188-A01], in experiment [1], the “ADCC responses against infected cells” value is reported as “enhanced ADCC responses” and the fold induction at 50 µM amounted to 2.27. In experiment [2], the “recognition of infected cells” value is listed as “enhanced the recognition of infected cells” and the fold induction at 50 µM is 7.11.

`CCOC(=O)N1CCC[C@H](C(=O)Nc2ccc(Cl)c(F)c2)C1` [(S)-MCG-III-188-A02]: in experiment [1], the “ADCC responses against infected cells” value is listed as “enhanced ADCC responses” and the fold induction at 50 µM was determined as 0.867. In addition, in experiment [2], the “recognition of infected cells” value was “enhanced the recognition of infected cells” and the fold induction at 50 µM was 6.35.

Consider `CCCNC(=O)N1CCC[C@H](C(=O)Nc2ccc(Cl)c(F)c2)C1` [(S)-MCG-IV-031-A05], for which the “ADCC responses against infected cells” value in experiment [1] was “enhanced ADCC responses”. Also, the “recognition of infected cells” value in experiment [2] is “enhanced the recognition of infected cells”.

As to `NCCNC(=O)N1CCC[C@H](C(=O)Nc2ccc(Cl)c(F)c2)C1` [(S)-MCG-IV-210], the “ADCC responses against infected cells” value in experiment [1] was “enhanced ADCC responses”. In experiment [2], the “recognition of infected cells” value is on record as “enhanced the recognition of infected cells”.

In the case of `O=C(Nc1ccc(Cl)c(F)c1)C1CCCN(S(=O)(=O)c2ccccc2)C1` (centres unmarked) [MCG-III-157-B03], the fold induction at 50 µM in experiment [1] is 1.94.

Regarding `Cn1cnc(S(=O)(=O)N2CCCC(C(=O)Nc3ccc(Cl)c(F)c3)C2)c1` (centres unmarked) [MCG-III-157-B04], the fold induction at 50 µM in experiment [1] came out at 1.73.

`O=C(Nc1ccc(Cl)c(F)c1)C1CCCOC1` (centres unmarked) [MCG-III-207]: the fold induction at 50 µM in experiment [1] came out at 1.59; in experiment [2], 3.69.

The values above are taken from US12286401B2, “Small molecules that sensitize HIV-1 infected cells to antibody dependent cellular cytotoxicity” (THE TRUSTEES OF THE UNIVERSITY OF PENNSYLVANIA, priority 2018, dated 2025).
